In publication PMC8119466, “A screen of FDA-approved drugs identifies inhibitors of protein tyrosine phosphatase 4A3 (PTP4A3 or PRL-3)” (Scientific Reports, 2021):
Structures can show the parent of a compound that is named as a salt. Where two headings read alike, the source gives them in different places.

Assays:
Type in all cases: biochemical
recombinant PRL-2 = target: T1, recombinant PRL-2 (Homo sapiens, UniProt Q12974); test: In vitro phosphatase assay (DiFMUP hydrolysis), PRL-2;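 further: PRL-2 activity read as DiFMUP hydrolysis after 20 min at room temperature with drug, enzyme first pre-reduced at 4 °C for 20 min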
T1 construct: 6xHis (N, cleaved yes); made in house; host or cells: E. coli One Shot BL21 Star
T1 sequence (Q12974 1-167): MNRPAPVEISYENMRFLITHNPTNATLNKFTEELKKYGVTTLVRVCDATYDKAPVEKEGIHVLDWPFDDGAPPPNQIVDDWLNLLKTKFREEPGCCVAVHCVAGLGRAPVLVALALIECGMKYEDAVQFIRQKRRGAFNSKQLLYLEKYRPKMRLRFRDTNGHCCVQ

recombinant PRL-3 = target: T2, recombinant PRL-3 (Homo sapiens, UniProt O75365); test: In vitro phosphatase assay (DiFMUP hydrolysis), PRL-3; further: test concentration or dose not given here
T2 construct: 6xHis (N, cleaved yes); made in house; host or cells: E. coli One Shot BL21 Star

recombinant PRL-1 = target: T3, recombinant PRL-1 (Homo sapiens, UniProt Q93096); test: In vitro phosphatase assay (DiFMUP hydrolysis), PRL-1; further: test concentration or dose not given here
T3 construct: 6xHis (N, cleaved yes); made in house; host or cells: E. coli One Shot BL21 Star
T3 sequence (Q93096 1-173): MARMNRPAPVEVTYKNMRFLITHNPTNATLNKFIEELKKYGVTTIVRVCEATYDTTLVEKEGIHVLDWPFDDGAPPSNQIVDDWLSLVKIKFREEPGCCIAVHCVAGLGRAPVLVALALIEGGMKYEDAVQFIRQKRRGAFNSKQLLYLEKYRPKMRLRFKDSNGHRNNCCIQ

[1] = FDA-approved drug screen, activity compared to DMSO

T2 sequence (O75365 whole entry): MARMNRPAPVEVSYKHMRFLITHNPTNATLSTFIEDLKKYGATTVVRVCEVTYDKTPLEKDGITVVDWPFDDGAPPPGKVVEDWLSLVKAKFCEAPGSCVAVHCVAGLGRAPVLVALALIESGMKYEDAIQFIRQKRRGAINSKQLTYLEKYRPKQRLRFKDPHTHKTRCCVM

| SMILES | % Phosphatase Activity (compared to DMSO) PRL-2 (recombinant PRL-2; [1]) [%] | % Phosphatase Activity (compared to DMSO) PRL-3 (recombinant PRL-3; [1]) [%] | % Phosphatase Activity (compared to DMSO) PRL-1 (recombinant PRL-1; [1]) [%] | % Phosphatase Activity (compared to DMSO) PRL-2 (recombinant PRL-2) [%] | % Phosphatase Activity (compared to DMSO) PRL-3 (recombinant PRL-3) [%] | % Phosphatase Activity (compared to DMSO) PRL-1 (recombinant PRL-1) [%] |
| --- | --- | --- | --- | --- | --- | --- |
| Nc1ccc(C(=O)NCC(=O)[O-])cc1.O.[Na+] [Sodium 4-aminohippurate Hydrate] | 87 | 84 | 84 | – | – | – |
| O=N[O-].[Na+] [Sodium Nitrite] | – | – | – | 116 | 75 | 94 |
| O=C(O)CCCc1ccccc1 [Sodium Phenylbutyrate] | 110 | 82 | 103 | – | – | – |
| O=S(=O)(O)Oc1ccc(C(c2ccc(OS(=O)(=O)O)cc2)c2ccccn2)cc1 [Sodium Picosulfate] | 110 | 81 | 115 | – | – | – |
| O=C1O[C@H]([C@@H](O)CO)C([O-])=C1O.[Na+] [Sodium ascorbate] | 71 | 113 | 85 | – | – | – |
| CCCC(=O)[O-].[Na+] [Sodium butyrate] | 90 | 89 | 97 | – | – | – |
| O=C([O-])c1ccccc1O.[Na+] [Sodium salicylate] | – | – | – | 103 | 95 | 130 |
| CC(C)OC(=O)[C@H](C)N[P@](=O)(OC[C@H]1O[C@@H](n2ccc(=O)[nH]c2=O)[C@](C)(F)[C@@H]1O)Oc1ccccc1 [Sofosbuvir (PSI-7977, GS-7977)] | 96 | 89 | 87 | – | – | – |
| O=C(O[C@H]1CN2CCC1CC2)N1CCc2ccccc2[C@@H]1c1ccccc1 [Solifenacin succinate] | 99 | 114 | 88 | – | – | – |
| CNC(=O)c1cc(Oc2ccc(NC(=O)Nc3ccc(Cl)c(C(F)(F)F)c3)cc2)ccn1 [Sorafenib Tosylate] | 93 | 73 | 85 | – | – | – |
| CNC(=O)c1cc(Oc2ccc(NC(=O)Nc3ccc(Cl)c(C(F)(F)F)c3)cc2)ccn1 [Sorafenib] | 80 | 95 | 91 | – | – | – |
| OC[C@@H](O)[C@@H](O)[C@H](O)[C@@H](O)CO [Sorbitol] | 96 | 80 | 105 | – | – | – |
| CCOc1ccc(Cc2cc([C@@H]3O[C@H](SC)[C@@H](O)[C@H](O)[C@H]3O)ccc2Cl)cc1 [Sotagliflozin (LX4211)] | 88 | 85 | 100 | – | – | – |
| CC(C)NCC(O)c1ccc(NS(C)(=O)=O)cc1 (stereo not drawn) [Sotalol] | 97 | 78 | 98 | – | – | – |
| CN1CCN(c2nc(C3=C(c4c[nH]c5ccccc45)C(=O)NC3=O)c3ccccc3n2)CC1 [Sotrastaurin] | 89 | 85 | 83 | – | – | – |
| C[C@@H]1CN(c2c(F)c(N)c3c(=O)c(C(=O)O)cn(C4CC4)c3c2F)C[C@H](C)N1 [Sparfloxacin] | 98 | 121 | 87 | – | – | – |

| SMILES | % Phosphatase Activity (compared to DMSO) PRL-2 (recombinant PRL-2; [1]) [%] | % Phosphatase Activity (compared to DMSO) PRL-3 (recombinant PRL-3; [1]) [%] | % Phosphatase Activity (compared to DMSO) PRL-1 (recombinant PRL-1; [1]) [%] | % Phosphatase Activity (compared to DMSO) PRL-2 (recombinant PRL-2) [%] | % Phosphatase Activity (compared to DMSO) PRL-3 (recombinant PRL-3) [%] | % Phosphatase Activity (compared to DMSO) PRL-1 (recombinant PRL-1) [%] |
| --- | --- | --- | --- | --- | --- | --- |
| CN[C@@H]1[C@H](O)[C@H](NC)[C@H]2O[C@@]3(O)C(=O)C[C@@H](C)O[C@H]3O[C@@H]2[C@H]1O.Cl.Cl [Spectinomycin HCl] | 110 | 77 | 109 | – | – | – |
| CC(=O)S[C@@H]1CC2=CC(=O)CC[C@]2(C)[C@H]2CC[C@@]3(C)[C@@H](CC[C@@]34CCC(=O)O4)[C@H]12 [Spironolactone] | 87 | 68 | 84 | – | – | – |
| C[C@]12Cc3c[nH]nc3C[C@@H]1CC[C@@H]1[C@@H]2CC[C@@]2(C)[C@H]1CC[C@]2(C)O [Stanozolol] | – | – | – | 84 | 93 | 89 |
| Cc1cn([C@H]2C=C[C@@H](CO)O2)c(=O)[nH]c1=O [Stavudine (d4T)] | 90 | 88 | 104 | – | – | – |
| [H]/N=C(/N)N[C@H]1[C@H](O)[C@@H](O)[C@H](O[C@@H]2O[C@@H](C)[C@](O)(C=O)[C@H]2O[C@@H]2O[C@@H](CO)[C@H](O)[C@@H](O)[C@@H]2NC)[C@@H](N/C(N)=N\[H])[C@@H]1O [Streptomycin sulfate] | 89 | 85 | 105 | – | – | – |
| O=C(O)CCC(=O)Nc1ccc(S(=O)(=O)Nc2nccs2)cc1 [Succinylsulfathiazole] | 97 | 85 | 85 | – | – | – |
| CC1(C)[C@H](C(=O)O)N2C(=O)C[C@H]2S1(=O)=O [Sulbactam sodium] | 112 | 89 | 111 | – | – | – |
| CC1(C)[C@H](C(=O)O)N2C(=O)C[C@H]2S1(=O)=O [Sulbactam] | 91 | 81 | 95 | – | – | – |
| Nc1ccc(S(=O)(=O)NC(=O)c2ccccc2)cc1 [Sulfabenzamide] | 121 | 83 | 93 | – | – | – |
| CC(=O)NS(=O)(=O)c1ccc(N)cc1 [Sulfacetamide Sodium] | 109 | 74 | 91 | – | – | – |
| COc1ncnc(NS(=O)(=O)c2ccc(N)cc2)c1OC [Sulfadoxine] | 106 | 76 | 110 | – | – | – |
| [H]/N=C(/N)NS(=O)(=O)c1ccc(N)cc1 [Sulfaguanidine] | 90 | 77 | 97 | – | – | – |
| COc1cnc(NS(=O)(=O)c2ccc(N)cc2)nc1 [Sulfameter] | 109 | 91 | 106 | – | – | – |
| Cc1cc(C)nc(NS(=O)(=O)c2ccc(N)cc2)n1 [Sulfamethazine] | 105 | 82 | 108 | – | – | – |
| Cc1nnc(NS(=O)(=O)c2ccc(N)cc2)s1 [Sulfamethizole] | 99 | 92 | 88 | – | – | – |
